Series [1] deals with Proteus mirabilis. As to the kind of experiment: In vivo antibacterial activity against Proteus mirabilis infected in CF1 mouse assessed as protection against bacterial infection administered as two doses. The format is functional.
Series [2] has as its system Pasteurella multocida. As to the kind of experiment: In vivo antibacterial activity against Pasteurella multocida infected in CF1 mouse assessed as protection against bacterial infection administered as two doses. The format is functional.
Series [3] has as its system Staphylococcus aureus. As to the kind of experiment: In vivo antibacterial activity against Staphylococcus aureus infected in CF1 mouse assessed as protection against bacterial infection administered as two doses. In kind it is functional.
The subject of series [4] is Escherichia coli. The series is described as follows: In vivo antibacterial activity against Escherichia coli infected in CF1 mouse assessed as protection against bacterial infection administered as two doses. The format is functional.
Series [5] deals with Salmonella. As to the kind of experiment: In vivo antibacterial activity against Salmonella schottmuelleri infected in CF1 mouse assessed as protection against bacterial infection administered as two doses. In kind it is functional.
Series [6] concerns Shigella dysenteriae. The series is described as follows: In vivo antibacterial activity against Shigella dysenteriae infected in CF1 mouse assessed as protection against bacterial infection administered as two doses. In kind it is functional.
The test system of series [7] is Histomonas meleagridis. The series is described as follows: In vivo antiprotozoal activity against Histomonas meleagridis infected in turkey. In kind it is functional, organism-based.
For series [8], the system named is Proteus vulgaris. As to the kind of experiment: In vivo antibacterial activity against Proteus vulgaris infected in CF1 mouse assessed as protection against bacterial infection administered as two doses. In kind it is functional.
The nature of series [9]: Acute toxicity in ip dosed mouse administered as single dose. In kind it is organism-based. The conditions noted are these: in vivo.
Series [10] relates to Salmonella. As to the kind of experiment: In vivo antibacterial activity against Salmonella typhosa infected in CF1 mouse assessed as protection against bacterial infection administered as two doses. The format is functional.
Series [11] in a line: Acute toxicity in po dosed mouse administered as single dose. In kind it is organism-based. The conditions noted are these: in vivo.
Series [12] deals with Streptococcus pyogenes. The series is described as follows: In vivo antibacterial activity against Streptococcus pyogenes infected in CF1 mouse assessed as protection against bacterial infection administered as two doses. The format is functional.
In series [13] the test system is Listeria monocytogenes. The series is described as follows: In vivo antibacterial activity against Listeria monocytogenes infected in CF1 mouse assessed as protection against bacterial infection administered as two doses. The format is functional.
Series [14] concerns Salmonella typhimurium. The series is described as follows: In vivo antibacterial activity against Salmonella typhimurium infected in CF1 mouse assessed as protection against bacterial infection administered as two doses. The format is functional, Salmonella enterica subsp. enterica serovar Typhimurium. As to conditions: Salmonella enterica.
Series [15] deals with Salmonella enteritidis. The series is described as follows: In vivo antibacterial activity against Salmonella enteriditis infected in CF1 mouse assessed as protection against bacterial infection administered as two doses. In kind it is functional, Salmonella enterica subsp. enterica serovar Enteritidis. The conditions noted are these: Salmonella enterica.
The test system of series [16] is Klebsiella pneumoniae. The series is described as follows: In vivo antibacterial activity against Klebsiella pneumoniae infected in CF1 mouse assessed as protection against bacterial infection administered as two doses. In kind it is functional.
Series [17] in a line: Acute toxicity in sc dosed mouse administered as single dose. The format is organism-based. The conditions noted are these: in vivo.
In series [18] the test system is Pseudomonas aeruginosa. As to the kind of experiment: In vivo antibacterial activity against Pseudomonas aeruginosa infected in sc dosed CF1 mouse assessed as protection against bacterial infection administered as two doses. The format is functional.
The subject of series [19] is Streptococcus pneumoniae. As to the kind of experiment: In vivo antibacterial activity against Diplococcus pneumoniae I infected in CF1 mouse assessed as protection against bacterial infection administered as two doses. The format is functional.
For series [20], the system named is Shigella flexneri. As to the kind of experiment: In vivo antibacterial activity against Shigella paradysenteriae infected in CF1 mouse assessed as protection against bacterial infection administered as two doses. In kind it is functional.

The term ED50 denotes the dose that gives a 50% effect, or the effect in half of the subjects. As a reminder, the LD50 is the dose at which mortality reaches 50%.

The source made the active and inactive calls. No cut-off for these calls is given here.

`O=C(N[C@H](CO)[C@H](O)c1ccc([N+](=O)[O-])cc1)C(Cl)Cl` [CHLORAMPHENICOL]: the ED50 in series [1] came to 52 mg/kg; in series [2], 11 mg/kg; in series [3] it was 27 mg/kg; in series [4], 41 mg/kg; in series [5], 9 mg/kg; in [6], 61 mg/kg. In addition, the ED50 is over 100 mg/kg in series [8]; 24 mg/kg in [10]; 27 mg/kg in series [12]; over 100 mg/kg in series [13]; 16 mg/kg in series [14]; 29 mg/kg in series [15]. Further, the ED50 in series [16] came out at 20 mg/kg. Also, the outcome in series [7] was inactive. The LD50 in series [9] was found to be 1320 mg/kg; in series [11], 2640 mg/kg.

Turning to `O=[N+]([O-])c1ccc(/C=[N+](/[O-])CCO)o1` [NIFURATRONE], the ED50 in [1] was 53 mg/kg; in [2] it was under 50 mg/kg; in [3], 26 mg/kg; in series [4] it was 27 mg/kg; in series [5] it was 8 mg/kg; in series [18] it was over 100 mg/kg. The ED50 was over 100 mg/kg in series [19]; 46 mg/kg in [20]; 31 mg/kg in series [10]; 47 mg/kg in series [12]; over 100 mg/kg in series [13]; 30 mg/kg in [14]. The ED50 was found to be 47 mg/kg in [15] and 39 mg/kg in series [16]. In addition, the results for the LD50 in series [17] and in series [11] were 417 mg/kg and 518 mg/kg, respectively. In addition, the result in [7] was inactive.

Consider `Cc1c(/C=[N+](\C)[O-])[n+]([O-])c2ccccc2[n+]1[O-]`, for which the ED50 in series [1] was 18 mg/kg; in [2], 7 mg/kg; in series [3], 74 mg/kg; in series [4], 10 mg/kg; in series [5], 1.5 mg/kg; in [18], over 250 mg/kg. In addition, the ED50 is 62 mg/kg in series [6]; 32 mg/kg in series [19]; 35 mg/kg in series [8]; 13 mg/kg in series [20]; 10 mg/kg in series [10]; 35 mg/kg in series [12]. The ED50 in series [13] was over 100 mg/kg; in [14] it was 16 mg/kg; in series [15], 2 mg/kg; in series [16], 6 mg/kg. The figures for the LD50 in series [17], in series [9] and in [11] were 596 mg/kg, 596 mg/kg and over 1000 mg/kg, respectively. Also, the outcome in series [7] was inactive.
